Patent US9169254B2, “Spiroimidazolone derivative” (Chugai Seiyaku Kabushiki Kaisha, priority 2009, dated 2015)

The compounds below were run against T1, human PTH1 receptor (Homo sapiens, UniProt Q03431) (assay: In vitro cAMP signal activity in HKRK-B7 cells (LLC-PK1 cells overexpressing the human PTH1 receptor)). Conditions: HKRK-B7 cells; compound at 1×10^−3 M; […]; 0.1 µM.
T1 sequence (Q03431 27-593): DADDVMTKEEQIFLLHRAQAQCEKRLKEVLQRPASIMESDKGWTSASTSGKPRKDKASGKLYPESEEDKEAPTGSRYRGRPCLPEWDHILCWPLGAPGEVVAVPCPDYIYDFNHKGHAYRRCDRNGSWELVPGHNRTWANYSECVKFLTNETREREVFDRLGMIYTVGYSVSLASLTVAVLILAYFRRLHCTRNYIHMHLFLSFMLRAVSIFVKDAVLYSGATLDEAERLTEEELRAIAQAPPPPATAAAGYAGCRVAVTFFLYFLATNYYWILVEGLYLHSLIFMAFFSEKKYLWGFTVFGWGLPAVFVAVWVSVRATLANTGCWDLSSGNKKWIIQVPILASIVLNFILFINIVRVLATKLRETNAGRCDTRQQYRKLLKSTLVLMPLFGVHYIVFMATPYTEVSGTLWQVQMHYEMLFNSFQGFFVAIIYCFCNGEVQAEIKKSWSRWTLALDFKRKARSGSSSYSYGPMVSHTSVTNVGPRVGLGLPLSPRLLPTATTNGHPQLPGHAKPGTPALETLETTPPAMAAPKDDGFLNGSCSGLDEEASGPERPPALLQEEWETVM
Format: cell-based

SMILES | cAMP production activity (%)
Cc1cc(N(C)C(N)=S)cc(C)c1CCS(=O)(=O)N1CCC2(CC1)N=C([C@H]1CC[C@H](C)CC1)NC2=O [Compound 474, 1-(3,5-Dimethyl-4-{2-[2-(4-methyl-cyclohexyl)-4-oxo-1,3,8-triaza-spiro[4.5]dec-1-ene-8-sulfonyl]-ethyl}-phenyl)-1-methyl-thiourea] | 89%

Same assay, conditions: HKRK-B7 cells; compound at 1×10^−3 M; cAMP produced as percentage of that produced by hPTH(1-34) at 100 nM

SMILES | cAMP production activity (%)
Cc1cc(C(=O)N(C)C)ccc1CCS(=O)(=O)N1CCC2(CC1)N=C(C1(C(F)(F)F)CC1)NC2=O [Compound 136, 3,N,N-trimethyl-4-{2-[4-oxo-2-(1-trifluoromethyl-cyclopropyl)-1,3,8-triaza-spiro[4.5]dec-1-ene-8-sulfonyl]-ethyl}-benzamide] | 72%
Cc1cc(N2C[C@H](CO)OC2=O)ccc1/C=C/S(=O)(=O)N1CCC2(CC1)N=C(c1cccc(C(F)(F)F)c1)NC2=O [Compound 222, 8-{(E)-2-[4-((R)-5-hydroxymethyl-2-oxo-oxazolidin-3-yl)-2-methyl-phenyl]-ethenesulfonyl}-2-(3-trifluoromethyl-phenyl)-1,3,8-triaza-spiro[4.5]dec-1-en-4-one] | 43%
Cc1cc(N2C(=O)NC(COC(C)(C)C)C2=O)cc(C)c1CCS(=O)(=O)N1CCC2(CC1)N=C([C@H]1CC[C@H](C)CC1)NC2=O (stereo partly drawn) [Compound 833, 5-tert-butoxymethyl-3-(3,5-dimethyl-4-{2-[2-(4-methyl-cyclohexyl)-4-oxo-1,3,8-triaza-spiro[4.5]dec-1-ene-8-sulfonyl]-ethyl}-phenyl)-imidazolidine-2,4-dione] | 34%
CCCCCCCCCC1=NC2(CCN(S(=O)(=O)/C=C/c3ccc(N(CCOCCO)C(C)=O)cc3C)CC2)C(=O)N1 [Compound 700, N-[2-(2-Hydroxy-ethoxy)-ethyl]-N-{3-methyl-4-[(E)-2-(2-nonyl-4-oxo-1,3,8-triaza-spiro[4.5]dec-1-ene-8-sulfonyl)-vinyl]-phenyl}-acetamide] | 121%
Cc1onc(-c2ccccc2)c1S(=O)(=O)N1CCC2(CC1)N=C(C1CCCCC1)NC2=O [Compound 52, 2-cyclohexyl-8-(5-methyl-3-phenyl-isoxazole-4-sulfonyl)-1,3,8-triaza-spiro[4.5]dec-1-en-4-one] | 23%
O=C1NC(C2CCC(CCC(F)(F)F)CC2)=NC12CCN(S(=O)(=O)CCc1cccc3c1ccn3CCOC[C@H](O)[C@@H](O)CO)CC2 (stereo partly drawn) [Compound 823, 2-[4-(3,3,3-trifluoro-propyl)-cyclohexyl]-8-(2-{1-[2-((2S,3S)-2,3,4-trihydroxy-butoxy)-ethyl]-1H-indol-4-yl}-ethanesulfonyl)-1,3,8-triaza-spiro[4.5]dec-1-en-4-one] | 103%
CN(C)C(=O)c1ccc(CCCS(=O)(=O)N2CCC3(CC2)N=C(C2CCCCC2)NC3=O)cc1 [Compound 324, 4-[3-(2-cyclohexyl-4-oxo-1,3,8-triaza-spiro[4.5]dec-1-ene-8-sulfonyl)-propyl]-N,N-dimethyl-benzamide] | 30%
Cc1cc(C(=O)N(C)C)ccc1CCS(=O)(=O)N1CCC2(CC1)N=C(c1cccc(COCC(F)(F)F)c1)NC2=O [Compound 168, 3,N,N-Trimethyl-4-(2-{4-oxo-2-[3-(2,2,2-trifluoro-ethoxymethyl)-phenyl]-1,3,8-triaza-spiro[4.5]dec-1-ene-8-sulfonyl}-ethyl)-benzamide] | 69%
Cc1ccc(OCCC(O)CO)cc1CCS(=O)(=O)N1CCC2(CC1)N=C(c1cccc(OC(F)(F)F)c1)NC2=O (stereo not drawn) [Compound 267, 8-{2-[5-(3,4-dihydroxy-butoxy)-2-methyl-phenyl]-ethanesulfonyl}-2-(3-trifluoromethoxy-phenyl)-1,3,8-triaza-spiro[4.5]dec-1-en-4-one] | 42%
CC(=O)Nc1ccc(/C=C/S(=O)(=O)N2CCC3(CC2)N=C(c2cccc(C(F)(F)F)c2)NC3=O)c(C)c1 [Compound 215, N-(3-Methyl-4-{(E)-2-[4-oxo-2-(3-trifluoromethyl-phenyl)-1,3,8-triaza-spiro[4.5]dec-1-ene-8-sulfonyl]-vinyl}-phenyl)-acetamide] | 81%

Further lines, results first:

cAMP production activity (%) | SMILES
91% | Cc1cc(C(=O)N2CCC(C)(O)CC2)cc(C)c1/C=C/[S@TB4](=O)(=O)N1CCC2(CC1)N=C(c1ccc(F)c(OC(F)(F)F)c1)NC2=O [Compound 1099, 2-(4-fluoro-3-trifluoromethoxy-phenyl)-8-{(E)-2-[4-(4-hydroxy-4-methyl-piperidine-1-carbonyl)-2,6-dimethyl-phenyl]-ethenesulfonyl}-1,3,8-triaza-spiro[4.5]dec-1-en-4-one]
93% | Cc1cc(N(C)C(N)=O)cc(C)c1/C=C/[S@TB4](=O)(=O)N1CCC2(CC1)N=C(CCCCCCCCCCC(F)F)NC2=O [Compound 1125, 1-(4-{(E)-2-[2-(11,11-difluoro-undecyl)-4-oxo-1,3,8-triaza-spiro[4.5]dec-1-ene-8-sulfonyl]-vinyl}-3,5-dimethyl-phenyl)-1-methyl-urea]
78% | CC(=O)Nc1ccc(CCS(=O)(=O)N2CCC3(CC2)N=C(c2ccc(C#N)cc2)NC3=O)c(C)c1 [Compound 906, N-(4-{2-[2-(4-cyano-phenyl)-4-oxo-1,3,8-triaza-spiro[4.5]dec-1-ene-8-sulfonyl]-ethyl}-3-methyl-phenyl)-acetamide]
57% | Cc1cc(N2C(=O)CNC2=O)c(C)cc1CCS(=O)(=O)N1CCC2(CC1)N=C(C1CCC(C)CC1)NC2=O (stereo not drawn) [Compound 778, 3-(2,5-dimethyl-4-{2-[2-(4-methyl-cyclohexyl)-4-oxo-1,3,8-triaza-spiro[4.5]dec-1-ene-8-sulfonyl]-ethyl}-phenyl)-imidazolidine-2,4-dione]
95% | Cc1cc(C(=O)N2CCC(O)(CF)CC2)cc(C)c1/C=C/S(=O)(=O)N1CCC2(CC1)N=C(c1ccc(F)c(C)c1C)NC2=O [Compound 1240, 2-(4-fluoro-2,3-dimethyl-phenyl)-8-{(E)-2-[4-(4-fluoromethyl-4-hydroxy-piperidine-1-carbonyl)-2,6-dimethyl-phenyl]-ethenesulfonyl}-1,3,8-triaza-spiro[4.5]dec-1-en-4-one]
93% | Cc1cc(N2C(=O)CNC2=O)ccc1CCS(=O)(=O)N1CCC2(CC1)N=C(C1CCC(C)(C)CC1)NC2=O [Compound 951, 3-(4-{2-[2-(4,4-dimethyl-cyclohexyl)-4-oxo-1,3,8-triaza-spiro[4.5]dec-1-ene-8-sulfonyl]-ethyl}-3-methyl-phenyl)-imidazolidine-2,4-dione]
76% | CC(=O)Nc1ccc(CCS(=O)(=O)N2CCC3(CC2)N=C([C@H]2CCC[C@@H](C)C2)NC3=O)c(C)c1 [Compound 924, N-(3-methyl-4-{2-[2-((1S,3R)-3-methyl-cyclohexyl)-4-oxo-1,3,8-triaza-spiro[4.5]dec-1-ene-8-sulfonyl]-ethyl}-phenyl)-acetamide]
81% | CCC1CCC(C2=NC3(CCN(S(=O)(=O)CCc4ccc(NC(C)=O)c(Cl)c4C)CC3)C(=O)N2)CC1 (stereo not drawn) [Compound 954, N-(2-chloro-4-{2-[2-(4-ethyl-cyclohexyl)-4-oxo-1,3,8-triaza-spiro[4.5]dec-1-ene-8-sulfonyl]-ethyl}-3-methyl-phenyl)-acetamide]
70% | CCCCC1CCC(C2=NC3(CCN(S(=O)(=O)/C=C/c4c(C)cc(C(=O)N5CCC(OCCOCCO)CC5)cc4C)CC3)C(=O)N2)CC1 (stereo not drawn) [Compound 1009, 2-(4-butyl-cyclohexyl)-8-[(E)-2-(4-{4-[2-(2-hydroxy-ethoxy)-ethoxy]-piperidine-1-carbonyl}-2,6-dimethyl-phenyl)-ethenesulfonyl]-1,3,8-triaza-spiro[4.5]dec-1-en-4-one]
82% | CC(=O)N(C)c1cc(C)c(CCS(=O)(=O)N2CCC3(CC2)N=C(CCCCCCCCC(F)(F)F)NC3=O)c(C)c1 [Compound 1047, N-(3,5-dimethyl-4-{2-[4-oxo-2-(9,9,9-trifluoro-nonyl)-1,3,8-triaza-spiro[4.5]dec-1-ene-8-sulfonyl]-ethyl}-phenyl)-N-methyl-acetamide]
30% | Cc1cc(CN2CCCC2=O)cc(C)c1CCS(=O)(=O)N1CCC2(CC1)N=C(C1CCC(C)CC1)NC2=O (stereo not drawn) [Compound 781, 8-{2-[2,6-dimethyl-4-(2-oxo-pyrrolidin-1-ylmethyl)-phenyl]-ethanesulfonyl}-2-(4-methyl-cyclohexyl)-1,3,8-triaza-spiro[4.5]dec-1-en-4-one]

Same assay, conditions: HKRK-B7 cells; compound at 1×10^−3 M; cAMP produced as percentage of that produced by hPTH(1-34) at 100 nM; 0.1 µM

cAMP production activity (%) | SMILES
51% | Cc1cc2ccc1CCS(=O)(=O)N1CCC3(CC1)N=C(NC3=O)c1cc(cc(C(F)(F)F)c1)OCCC=CCCCCN(C)C2=O [Compound 1410]
64% | C#C[C@H]1CC[C@@H](C2=NC3(CCN(S(=O)(=O)CCc4ccc(NC(C)=O)cc4C)CC3)C(=O)N2)CC1 [Compound 1370, N-(4-{2-[2-(4-Ethynyl-cyclohexyl)-4-oxo-1,3,8-triaza-spiro[4.5]dec-1-ene-8-sulfonyl]-ethyl}-3-methyl-phenyl)-acetamide]
